According to PubChem BioAssay AID624129 (Sanford-Burnham Center for Chemical Genomics, 2012):
Active and inactive are the calls of the source. The rule behind the calls is not given here.

Columns and labels:
Test in all cases: potency against CXCR6 with APJ panel – cell-based, beta-arrestin, DiscoveRx, uHTS hits, dose response (AID 624129)
[1] = target: C-C chemokine receptor type 6 (Homo sapiens) (UniProt P51684); conditions: CXCR6 beta-arrestin (DiscoveRx) antagonist cell assay
[2] = target: Apelin receptor (Homo sapiens) (UniProt P35414); conditions: CXCR6 beta-arrestin (DiscoveRx) antagonist cell assay, APJ
[3] = target: Beta-galactosidase (Escherichia coli) (UniProt Q8VNN2); conditions: CXCR6 beta-arrestin (DiscoveRx) antagonist cell assay, b-galactosidase
Sequence of Beta-galactosidase (Escherichia coli) (Q8VNN2 whole entry, looked up): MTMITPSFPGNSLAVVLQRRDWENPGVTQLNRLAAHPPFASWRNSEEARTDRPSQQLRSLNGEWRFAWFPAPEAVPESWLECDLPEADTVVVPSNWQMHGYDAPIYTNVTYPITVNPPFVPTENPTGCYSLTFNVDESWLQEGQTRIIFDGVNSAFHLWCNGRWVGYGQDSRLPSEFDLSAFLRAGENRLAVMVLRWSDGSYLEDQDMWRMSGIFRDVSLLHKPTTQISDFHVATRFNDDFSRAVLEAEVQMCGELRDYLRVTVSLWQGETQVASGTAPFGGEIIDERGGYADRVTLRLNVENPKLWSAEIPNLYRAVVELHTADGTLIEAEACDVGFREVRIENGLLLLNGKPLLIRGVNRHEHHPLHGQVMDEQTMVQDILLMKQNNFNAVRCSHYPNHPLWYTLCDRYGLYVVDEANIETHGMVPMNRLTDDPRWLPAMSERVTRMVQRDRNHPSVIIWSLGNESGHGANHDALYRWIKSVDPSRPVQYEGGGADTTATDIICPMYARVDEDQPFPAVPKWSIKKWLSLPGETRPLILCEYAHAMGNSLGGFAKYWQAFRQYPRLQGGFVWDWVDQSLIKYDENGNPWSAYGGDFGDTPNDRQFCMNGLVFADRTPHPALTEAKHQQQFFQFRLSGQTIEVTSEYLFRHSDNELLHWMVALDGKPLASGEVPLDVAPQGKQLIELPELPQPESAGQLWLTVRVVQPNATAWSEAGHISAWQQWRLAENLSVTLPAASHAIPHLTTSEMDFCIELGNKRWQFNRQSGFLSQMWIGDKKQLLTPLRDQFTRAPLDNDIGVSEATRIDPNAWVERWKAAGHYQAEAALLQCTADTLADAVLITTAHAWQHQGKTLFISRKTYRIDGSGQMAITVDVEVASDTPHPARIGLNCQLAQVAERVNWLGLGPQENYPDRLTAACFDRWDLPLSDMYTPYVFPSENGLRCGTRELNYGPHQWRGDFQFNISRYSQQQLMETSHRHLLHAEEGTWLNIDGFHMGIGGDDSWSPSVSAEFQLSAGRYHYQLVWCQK

[4] = target: C-X-C chemokine receptor type 6 (Homo sapiens) (UniProt O00574); conditions: CXCR6 beta-arrestin (DiscoveRx) antagonist cell assay
Sequence of C-X-C chemokine receptor type 6 (Homo sapiens) (O00574 whole entry, looked up): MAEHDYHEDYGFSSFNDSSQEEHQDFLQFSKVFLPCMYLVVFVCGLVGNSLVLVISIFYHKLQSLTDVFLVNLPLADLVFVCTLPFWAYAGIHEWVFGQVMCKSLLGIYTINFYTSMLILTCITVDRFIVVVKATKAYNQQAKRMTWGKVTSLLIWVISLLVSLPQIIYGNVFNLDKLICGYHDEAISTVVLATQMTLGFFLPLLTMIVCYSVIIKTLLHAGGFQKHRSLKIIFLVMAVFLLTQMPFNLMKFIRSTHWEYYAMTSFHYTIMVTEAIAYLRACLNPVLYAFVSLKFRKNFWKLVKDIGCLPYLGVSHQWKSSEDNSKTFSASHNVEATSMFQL

[5] = CCR6, dose range 1, mean IC50 across replicates
[6] = dose range 1, mean IC50 across replicates
[7] = CXCR6, dose range 1, mean IC50 across replicates
[8] = CXCR6, run 1, dose range 2, at 80 µM (top of the series)

IC50 ([1]; CCR6, dose range 1) | IC50 [1, 5] | IC50 ([1]; CCR6, run 2, dose range 1) | IC50 ([2]; dose range 1) | IC50 [2, 6] | IC50 ([2]; run 2, dose range 1) | IC50 ([2]; run 3, dose range 1) | IC50 ([3]; dose range 1) | IC50 [3, 6] | IC50 ([4]; CXCR6, dose range 1) | IC50 [4, 7] | inhibition [4, 8] | IC50 ([4]; CXCR6, run 2, dose range 1) | IC50 ([4]; CXCR6, run 1, dose range 2) | IC50 ([4]; CXCR6, run 2, dose range 2) | inhibition ([4]; CXCR6, run 1, dose range 2, at 10 µM (top of the series)) | inhibition ([4]; CXCR6, run 1, dose range 2, at 40 µM (top of the series)) | SMILES
43.4 µM | 38.8 µM | 34.2 µM | 31.8 µM | 24.9 µM | 18.1 µM | > 80 µM | > 80 µM (inactive) | > 80 µM | inactive | 55.9 µM | 82.8% | 33.6 µM | – | – | – | – | CN(C)c1nc(=NCc2ccco2)ss1
7.75 µM | 6.75 µM | 5.76 µM | 14.4 µM | 14.5 µM | 11.7 µM | 17.5 µM | > 80 µM (inactive) | > 80 µM | 7.69 µM | 9.06 µM | – | 7.88 µM | 9.82 µM | 10.8 µM | – | – | N#CC(C#N)=C1C=CC=CN1/C(=C\c1ccccc1Cl)C(=O)c1ccccc1
3.32 µM | 4.21 µM | 5.09 µM | 3.05 µM | 3.73 µM | 4.26 µM | 3.89 µM | > 80 µM (inactive) | > 80 µM | 5 µM | 4 µM | – | 4.65 µM | 3.2 µM | 3.15 µM | – | – | O=[N+]([O-])c1ccc(Sc2cccc3cccnc23)c([N+](=O)[O-])c1
3.37 µM | 3.94 µM | 4.51 µM | 2.83 µM | 3.28 µM | 3.64 µM | 3.36 µM | > 80 µM (inactive) | > 80 µM | 5.34 µM | 4.07 µM | – | 5.55 µM | 2.66 µM | 2.73 µM | – | – | CC(=O)/C(=N\Nc1ccc(Cl)cc1Cl)Sc1cccc2cccnc12
1.99 µM | 2.25 µM | 2.52 µM | 7.16 µM | 12 µM | 9.32 µM | 19.6 µM | > 80 µM (inactive) | > 80 µM | 3.04 µM | 4.66 µM | – | 10.9 µM | 2.25 µM | 2.44 µM | – | – | C/C(=N\NC(=O)C(c1ccccc1)c1ccccc1)c1ccccn1
16.8 µM | 18.6 µM | 20.5 µM | 17 µM | 17.9 µM | 21.6 µM | 15.1 µM | 28.5 µM | 28.5 µM | inactive | 18.1 µM | – | 22.9 µM | 10.2 µM | 10.6 µM | – | – | Oc1c(Br)cc(Br)cc1C=NCc1ccccc1
24.5 µM | 23.2 µM | 21.9 µM | 38.4 µM | 38.9 µM | 37.8 µM | 40.5 µM | > 80 µM (inactive) | > 80 µM | inactive | 22.3 µM | 135% | 20.9 µM | – | – | – | – | C=C(CN(C)C)C(=O)c1ccc(OC2OC(COC(C)=O)C(OC(C)=O)C(OC(C)=O)C2OC(C)=O)cc1 (configuration not stated)
0.489 µM | 0.686 µM | 0.883 µM | 0.686 µM | 0.684 µM | 0.685 µM | 0.68 µM | > 80 µM (inactive) | > 80 µM | 0.963 µM | 0.897 µM | – | 0.832 µM | – | – | 99.9% | – | COc1ccc(NC(=O)/C(Cl)=C(/Cl)S(=O)(=O)Cc2ccc(C)cc2)cn1
8.92 µM | 8.58 µM | 8.23 µM | 10.3 µM | 9.16 µM | 8.53 µM | 8.62 µM | > 80 µM (inactive) | > 80 µM | 18.7 µM | 10.9 µM | – | 8.52 µM | 5.57 µM | 10.9 µM | – | – | O=C(NNC(=O)C12CC3CC(CC(C3)C1)C2)c1ccccn1
– | > 80 µM | > 80 µM | – | > 80 µM | > 80 µM | > 80 µM | > 80 µM (inactive) | > 80 µM | > 80 µM (inactive) | > 80 µM | 4.14% | > 80 µM | – | – | – | – | COc1ccc(Nc2ccc([N+](=O)[O-])c3nonc23)c(OC)c1
4.44 µM | 4.75 µM | 5.06 µM | 7.98 µM | 8.39 µM | 8.95 µM | 8.25 µM | > 80 µM (inactive) | > 80 µM | 8.93 µM | 8.35 µM | – | 7.5 µM | 6.66 µM | 10.3 µM | – | – | O=C1C=CC2(C=C1)O[C@H](Cc1ccccc1)[C@@H](Cc1ccccc1)O2
3.71 µM | 3.08 µM | 2.45 µM | 4.95 µM | 6.97 µM | 8.96 µM | 6.98 µM | > 80 µM (inactive) | > 80 µM | 5 µM | 4.12 µM | – | 5.18 µM | 3.43 µM | 2.88 µM | – | – | COc1ccc(/C=C/c2ccc3cccc(O)c3n2)c(OC)c1OC
7.01 µM | 5.66 µM | 4.3 µM | 12.3 µM | 12.3 µM | > 80 µM | > 80 µM | > 80 µM (inactive) | > 80 µM | 4.14 µM | 3.58 µM | – | 6.74 µM | 1.54 µM | 1.9 µM | – | – | CCOC(=O)c1c(C)oc2c1c(C=NCc1ccccn1)c(O)c1ccccc12
3.28 µM | 2.67 µM | 2.06 µM | inactive | 20.2 µM | 5.81 µM | 53.2 µM | > 80 µM (inactive) | > 80 µM | 2.01 µM | 1.94 µM | – | 2.04 µM | 1.77 µM | 1.94 µM | – | – | O=C1C(Cc2ccccc2)Nc2ncnc(N3CCN(c4ccccc4)CC3)c2N1Cc1ccc(Cl)cc1 (configuration not stated)
13.2 µM | 34.3 µM | 55.4 µM | 19 µM | 27.6 µM | 24.9 µM | 38.9 µM | > 80 µM (inactive) | > 80 µM | inactive | 18.3 µM | 56.2% | 17.4 µM | – | – | – | – | O=C(c1nnsc1S(=O)c1ccc(Cl)cc1)N1CCOCC1 (configuration not stated)
1.85 µM | 2.69 µM | 3.52 µM | 1.69 µM | 3.11 µM | 5.55 µM | 2.1 µM | > 80 µM (inactive) | > 80 µM | 2.68 µM | 2.42 µM | – | 2.16 µM | – | – | – | 96.5% | Cc1cc(C)c2c(=O)n(CC(=O)Nc3cccc(Cl)c3C)sc2n1

SMILES | IC50 ([1]; CCR6, dose range 1) | IC50 [1, 5] | IC50 ([1]; CCR6, run 2, dose range 1) | IC50 ([2]; dose range 1) | IC50 [2, 6] | IC50 ([2]; run 2, dose range 1) | IC50 ([2]; run 3, dose range 1) | IC50 ([3]; dose range 1) | IC50 [3, 6] | IC50 ([4]; CXCR6, dose range 1) | IC50 [4, 7] | inhibition [4, 8] | IC50 ([4]; CXCR6, run 2, dose range 1) | IC50 ([4]; CXCR6, run 1, dose range 2) | IC50 ([4]; CXCR6, run 2, dose range 2) | inhibition ([4]; CXCR6, run 1, dose range 2, at 10 µM (top of the series)) | inhibition ([4]; CXCR6, run 1, dose range 2, at 40 µM (top of the series))
O=[N+]([O-])/C=C/c1c(Cl)cccc1Cl | – | > 80 µM | > 80 µM | – | 14.3 µM | > 80 µM | 14.3 µM | > 80 µM (inactive) | > 80 µM | > 80 µM (inactive) | > 80 µM | 54% | > 80 µM | – | – | – | –
